In patent US9295665B2, “Inhibition of neovascularization by simultaneous inhibition of prostanoid IP and EP4 receptors” (ALLERGAN, INC., priority 2013, dated 2016):

Legend:
IP receptor [1] = biological target: T1, IP receptor (Homo sapiens, UniProt P43119); assay: VEGF secretion in TNFα-stimulated human macrophages (IP agonist / IP antagonist)
Protocol: (§1) Histogram ordering (both panels, left to right): No stimulus; vehicle; 0.1 nM; 1 nM; 10 nM; 100 nM; 1000 nM of agonist.

IP receptor [2] = biological target: T1, IP receptor; assay: Cellular Dielectric Spectroscopy (impedance) in human retinal microvascular endothelial cells, IP agonist; format: cell-based; design: TNFα-stimulated human macrophages, obtained from individual donors; endogenous in cells; host or cells: TNFα-stimulated human macrophages from individual donors; conditions: HRMECs, normalized to PGE2 at 10 μM; read-out: EC50, change in impedance
Protocol: Cellular dielectric spectroscopy, as known in the art, was employed to determine EC50 levels for EP4 agonist and IP agonist in human retinal microvascular endothelial cells (HRMECs). […].
Cellular Dielectric Spectroscopy (CDS) is a label-free technology to measure the changes in impedance of cells in response to receptor stimulation. HRMEC cells were seeded at on 96 well plates (CDS plates) coated with fibronectin and incubated for 24 hrs at 37° C., 5% CO2. On the day of the experiment, the culture medium was replaced by HBSS, BSA 1% and incubated for 1 h at 28° C. Compounds were then added and the signal was monitored for 10 minutes at 28° C. Compounds were tested at the following final concentrations in assay buffer containing 0.1% DMSO: 1E-12, 1E-11, 1E-10, 1E-9, 1E-8, 1E-7, 1E-6, and 1E-5M. The background signal (buffer only) was systematically subtracted to the signal in order to determine the specific signal. The effect of EP4 agonist Formula V and IP agonist Cicaprost were normalized to the signal of the positive control PGE2 at 10 μM. All data were generated in duplicate.

EP4 receptor = EP4 receptor (Homo sapiens, UniProt P35408); assay: VEGF secretion in TNFα-stimulated human macrophages (EP4 agonist / EP4 antagonist); conditions: 100 nM PGE2, TNFα-stimulated human macrophages from individual donors, 1, 3, 10 μM antagonist, n=3
Sequence of EP4 receptor (P35408 whole entry): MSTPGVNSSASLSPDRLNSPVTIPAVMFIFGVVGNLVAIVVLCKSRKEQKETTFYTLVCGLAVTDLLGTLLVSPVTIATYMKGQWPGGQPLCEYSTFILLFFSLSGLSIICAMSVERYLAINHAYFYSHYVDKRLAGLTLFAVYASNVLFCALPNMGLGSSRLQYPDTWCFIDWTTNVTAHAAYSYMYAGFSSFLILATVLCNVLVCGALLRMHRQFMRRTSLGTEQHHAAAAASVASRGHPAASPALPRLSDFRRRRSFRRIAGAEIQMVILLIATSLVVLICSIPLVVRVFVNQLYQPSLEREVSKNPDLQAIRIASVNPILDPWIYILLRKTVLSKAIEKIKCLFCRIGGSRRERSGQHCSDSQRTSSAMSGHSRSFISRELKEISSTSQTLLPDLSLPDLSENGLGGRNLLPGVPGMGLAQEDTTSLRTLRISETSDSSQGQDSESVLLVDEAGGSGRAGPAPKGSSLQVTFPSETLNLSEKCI
Protocol: as §1

T1 sequence (P43119 whole entry): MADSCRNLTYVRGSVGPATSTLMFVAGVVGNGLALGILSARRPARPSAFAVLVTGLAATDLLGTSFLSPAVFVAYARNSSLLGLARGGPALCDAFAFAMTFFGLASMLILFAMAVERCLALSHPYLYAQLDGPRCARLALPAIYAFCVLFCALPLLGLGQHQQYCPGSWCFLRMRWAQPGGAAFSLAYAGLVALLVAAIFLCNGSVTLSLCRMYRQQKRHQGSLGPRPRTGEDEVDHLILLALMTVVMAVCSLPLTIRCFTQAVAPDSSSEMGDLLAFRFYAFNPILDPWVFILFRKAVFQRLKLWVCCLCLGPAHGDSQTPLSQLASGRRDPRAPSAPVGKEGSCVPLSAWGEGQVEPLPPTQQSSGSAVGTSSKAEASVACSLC

CC(C)Oc1ccc(Cc2ccc(NC3=NCCN3)cc2)cc1 [Formula I]
Inhibition of Cicaprost-induced VEGF secretion (IP receptor [1]; 100 nM Cicaprost, TNFα-stimulated human macrophages from individual donors, 1, 3, 10 μM antagonist, n=2): dose dependently inhibiting

CCC#CC[C@H](C)[C@H](O)C#C[C@@H]1[C@H]2C/C(=C/COCC(=O)O)C[C@H]2C[C@H]1O [Cicaprost, cicaprost]
EC50 (IP receptor [1]): 2.3 nM | EC50 (IP receptor [2]): 18 nM

CCOc1c2c(c(OCC)c3ccccc13)C(=O)N(c1ccc(CC(=O)NS(=O)(=O)c3ccccc3)cc1)C2 [Formula IV]
Inhibition of PGE2-induced VEGF secretion (EP4 receptor): dose dependently inhibiting
